Test results published in patent US10428043B2, “Green oxidation catalytic system” (TRUSTEES OF BOSTON UNIVERSITY, priority 2014, dated 2019).
Blank lines part the entries; values can stand above or below the molecule they belong to.

Key:
[1] = cited from earlier work; for second order rate constant k of NO binding: 20° C., stopped-flow with laser flash photolysis
[2] = Low-temperature stopped-flow kinetics of adduct complexes with dioxygen; details: complex 0.94-1.1 mM, O2 5 mM, methanol, −85° C.
Procedure: (§1) Stopped-flow Spectroscopy and Data analysis.
Kinetic studies of [Fe^II(N2O1)(α-KG)(CH3OH)]^− and [Fe^II(N2O1)(p-X-BF)(CH3OH)]^− adduct complexes with dioxygen. Low-temperature stopped flow studies of this reaction were performed.
Order dependence analysis.
The kinetic model was built by starting from simple two- and three-exponential processes.
Stoichiometry of the equations for the proposed model in FIG. 29: […]

[3] = estimated value for the functional group; cited from earlier work
[4] = Room temperature O2 reactivity of ferrous complexes followed by UV/vis; details: αKG adduct
Procedure: The solution was transferred to an anaerobic UV/vis cell and sealed. An initial spectrum was obtained of the ferrous complex, and then the solution was exposed to the air. Spectra were recorded every minute for the first two minutes and then every 5-30 minutes after that for seven hours. The absorbance was monitored at 350 nm to follow formation of the oxidized complex.
This solution was then transferred to an anaerobic UV/vis cell and sealed. An initial spectrum was obtained of the ferrous complex, and then the solution was exposed to the air. Spectra were collected every minute for the first 30 minutes and then every 5-20 minutes after that for 2 hours. The absorbance was monitored at 315 nm to follow formation of the oxidized complex.

[5] = Catalytic oxidation of methanol to formaldehyde with α-KG and O2 (Nash assay); details: N2O1py system, five equivalents [Na][αKG], O2, 60 min
[6] = Cyclic voltammetry, redox potentials; assay type: physicochemical
Description: All reagents and solvents used were purchased from commercial sources and used as received unless otherwise noted. Prior to use, methanol (Pharmco-Aaper) was distilled over magnesium metal, dimethyl sulfoxide (Fisher Scientific) was distilled over calcium hydride, triethylamine was distilled over sodium metal and unstabilized dichloromethane (Fisher Scientific) was distilled over calcium hydride. Ferrocene was purified by sublimation for use as a reference for electrochemical analyses. All manipulations involving ferrous complexes were carried out in an inert atmosphere glovebox (M. Braun, Stratham, N.H.) with distilled and thoroughly degassed solvents. UV/Vis spectra were collected using a Hewlett Packard Spectrometer (8453). IR spectra were collected using a Thermo Nicolet AVATAR 330-FT-IR. Cyclic voltammetry experiments were performed using a Princeton Applied Research model 273 potentiostat with a glassy carbon working electrode, a silver wire reference electrode and a platinum wire counter electrode. Electron Paramagnetic Resonance (EPR) spectra were collected on a Bruker ESP-300E spectrometer operating at 9.460 GHz. NMR spectra were recorded at 25° C. using a Varian spectrometer operating at 400 MHz with all chemical shifts referenced to SiMe4. Iron concentrations were determined using a Varian AA240Z Atomic Absorption Spectrometer.
Cyclic voltammetry was performed inside an inert atmosphere (N2) box, with degassed DMSO as the solvent and tetra-N-butylammonium hexafluorophosphate as the supporting electrolyte (0.2M). The ferrocenium/ferrocene couple was used as an internal reference; reduction potential values were corrected by assigning the ferrocenium/ferrocene couple to 0.64 V versus NHE (Zanello, P. Inorganic Electrochemistry; The Royal Society of Chemistry: Cambridge, 2003). Chloride titration experiments were performed by collecting CV data after the addition of one and two 50 μL aliquots of 204 mM [NEt4][Cl] to 3.0 mL of 3.4 mM [Fe^II(N2O1py)(Cl)2]^− (concentration determined using flame atomic absorption spectroscopy) and correcting the potential with reference to the ferrocenium/ferrocene couple.
It should be noted that these redox potentials were determined in the absence of excess halide, and further CV studies will be performed in the presence of excess halide for all derivatives of the N2O1py system.

[7] = Stopped-flow kinetics of NO binding at −85° C. in methanol; details: NO 6.4 mM
Description: as §1

Structure (SMILES): O.O.O.O.O.O.[Fe+2] [[Fe(H2O)6)]^2+]
- second order rate constant k of NO binding [1]: 1.42e+06 M⁻¹ s⁻¹

Structure (SMILES): CN(C)CCN(C)CC(=O)[O-].CO.N#Cc1ccc(C(=O)C(=O)[O-])cc1.[Fe+2] [compound 25, [Fe^II(N2O1)(p-CN-BF)(CH3OH)]]
- k′1 [2]: 8.7 ± 1.2 s⁻¹
- k′2 [2]: 140 ± 12 M⁻¹ s⁻¹
- k′3 [2]: 60 ± 5 s⁻¹
- k′4 (k′4obs) [2]: 0.2 ± 0.02 s⁻¹

Structure (SMILES): CN(CC(=O)O)Cc1ccccn1 [[H2N2O1py]^+, 2-(methyl(pyridine-1-ium-2-ylmethyl)ammonio)acetate]
- estimated pKa, carboxylic acid [3]: ~4.8
- estimated pKa, pyridinium [3]: ~5.2
- estimated pKa, tertiary ammonium [3]: ~10

Structure (SMILES): CN(CC(=O)[O-])Cc1ccccn1.O=C([O-])CCC(=O)C(=O)[O-].[Fe+2] [[Fe^II(N2O1py)(αKG)]]
- time for reaction with O2, in words [4]: within minutes
- turnover number (equivalents of formaldehyde per iron center) ([5]; iron complex 1.0 μM): 33
- turnover number (equivalents of formaldehyde per equivalent of iron) ([5]; iron complex 100 μM): 0.7

- E1/2 ([6]; DMSO, glassy carbon working electrode, absence of excess halide): 270 mV
Structure (SMILES): C#Cc1ccnc(CN(C)CC(=O)[O-])c1.CC[NH+](CC)CC.CO.[Cl-].[Cl-].[Fe+2] [[Fe^II(N2O1py-alkyne)], [C6H16N][Fe^II(N2O1-alkyne)(MeOH)(Cl)2]]

Structure (SMILES): N#C[N-]C#N.N#C[N-]C#N.N#C[N-]C#N.N#C[N-]C#N.N#C[N-]C#N.[Cl-].[Fe+2] [[Fe^II(dca)5Cl]^4−]
- second order rate constant k of NO binding [1]: 1.7e+07 M⁻¹ s⁻¹

Structure (SMILES): CN(C)c1cccc2cccc([NH+](C)C)c12.CN(CC(=O)[O-])Cc1ccccn1.[Cl-].[Cl-].[Cl-].[Fe+3] [Fe^III N2O1py, [PSH][Fe^III(N2O1py)(Cl)3]]
- ΔE ([6]; no added halide): 128 mV
- E1/2 ([6]; no added halide, in mV): +189

Structure (SMILES): CN(C)CCN(C)CC(=O)[O-].CO.Nc1ccc(C(=O)C(=O)[O-])cc1.[Fe+2] [compound 26, [Fe^II(N2O1)(p-NH2-BF)(CH3OH)]]
- k′1 [2]: 8.5 ± 1.8 s⁻¹
- k′2 [2]: 2700 ± 300 M⁻¹ s⁻¹
- k′3 [2]: 1.0 ± 0.2 s⁻¹
- k′4 (k′4obs) [2]: 1.7 ± 0.4 s⁻¹

- k20 (loss of a ligand before NO binding) [7]: 8.2 s⁻¹
- k21 (second order, NO binding) [7]: 127 M⁻¹ s⁻¹
Structure (SMILES): O.O.O=C([O-])CN(CCN(CC(=O)[O-])CC(=O)O)CC(=O)[O-].[Cl-].[K+].[Ru+3] [K[Ru^III(Hedta)Cl].2H2O]
- rate k of reaction with NO ([1]; room temperature, aqueous solution, depending on pH): 38000 to 120000 M⁻¹ s⁻¹

Structure (SMILES): CN(C)CCN(C)CC(=O)[O-].[Cl-].[Cl-].[Cl-].[Fe+3] [Fe^III N2O1, [Fe^III(N2O1)(Cl)3]]
- E1/2 ([6]; no added halide, in mV): +136
